≈ marks a conversion by molar mass, not a printed value.
Assays:
Type in all cases: functional
[1] = test system: Staphylococcus epidermidis; test: In vitro antibacterial activity against Staphylococcus epidermidis
[2] = test system: Staphylococcus aureus; test: In vitro antibacterial activity against Staphylococcus aureus
[3] = test system: Streptococcus pneumoniae; test: In vitro antibacterial activity against Streptococcus pneumoniae
[4] = test system: Streptococcus; test: In vitro antibacterial activity against Streptococcus
[5] = test system: Staphylococcus hominis; test: In vitro antibacterial activity against Staphylococcus hominis

| MIC [1] [µg/mL] | MIC [2] [µg/mL] | MIC [3] [µg/mL] | MIC [4] [µg/mL] | MIC [5] [µg/mL] | Compound |
| --- | --- | --- | --- | --- | --- |
| 4 (≈ 8.14 µM) | 8 (≈ 16.3 µM) | 2 (≈ 4.07 µM) | 2 (≈ 4.07 µM) |  | CC(=O)NC[C@H]1CN(c2ccc(N3CCN(S(=O)(=O)c4ccccc4N)CC3)c(F)c2)C(=O)O1 |
| 0.25 (≈ 0.525 µM) | 4 (≈ 8.39 µM) | 2 (≈ 4.2 µM) | 4 (≈ 8.39 µM) | 1 (≈ 2.1 µM) | CC(=O)NC[C@H]1CN(c2ccc(N3CCN(S(=O)(=O)c4ccccc4)CC3)c(F)c2)C(=O)O1 |
| 128 (≈ 230 µM) | > 128 | > 128 | > 128 | > 128 | CC(=O)NC[C@H]1CN(c2ccc(N3CCN(S(=O)(=O)c4ccc(Br)cc4)CC3)c(F)c2)C(=O)O1 |
| 0.5 (≈ 1.21 µM) | 4 (≈ 9.65 µM) | 2 (≈ 4.83 µM) | 4 (≈ 9.65 µM) | 2 (≈ 4.83 µM) | CC(=O)NC[C@H]1CN(c2ccc(N3CCN(S(C)(=O)=O)CC3)c(F)c2)C(=O)O1 |
| 0.25 (≈ 0.509 µM) | 0.5 (≈ 1.02 µM) | 1 (≈ 2.03 µM) | 1 (≈ 2.03 µM) | 0.25 (≈ 0.509 µM) | CC(=O)NC[C@H]1CN(c2ccc(N3CCN(S(=O)(=O)c4cccc(N)c4)CC3)c(F)c2)C(=O)O1 |
| 4 (≈ 8.29 µM) | 16 (≈ 33.2 µM) | 4 (≈ 8.29 µM) | 4 (≈ 8.29 µM) |  | CC(=O)NC[C@H]1CN(c2ccc(N3CCN(S(=O)(=O)c4cccs4)CC3)c(F)c2)C(=O)O1 |
| > 128 | > 128 | > 128 | > 128 | > 128 | CC(=O)NC[C@H]1CN(c2ccc(N3CCN(S(=O)(=O)c4cccc(NC(C)=O)c4)CC3)c(F)c2)C(=O)O1 |
| 0.5 (≈ 0.987 µM) | 16 (≈ 31.6 µM) | 8 (≈ 15.8 µM) | 16 (≈ 31.6 µM) | 2 (≈ 3.95 µM) | COc1ccc(S(=O)(=O)N2CCN(c3ccc(N4C[C@H](CNC(C)=O)OC4=O)cc3F)CC2)cc1 |
| 4 (≈ 8.15 µM) | 128 (≈ 261 µM) | > 128 | 128 (≈ 261 µM) | 64 (≈ 130 µM) | CC(=O)NC[C@H]1CN(c2ccc(N3CCN(S(=O)(=O)c4ccc(C)cc4)CC3)c(F)c2)C(=O)O1 |
| > 64 | > 64 | > 64 | > 64 | > 64 | CC(=O)NC[C@H]1CN(c2ccc(N3CCN(S(=O)(=O)c4ccccc4NC(C)=O)CC3)c(F)c2)C(=O)O1 |
| 4 (≈ 7.67 µM) | 8 (≈ 15.3 µM) | 8 (≈ 15.3 µM) | 8 (≈ 15.3 µM) |  | CC(=O)NC[C@H]1CN(c2ccc(N3CCN(S(=O)(=O)c4ccccc4[N+](=O)[O-])CC3)c(F)c2)C(=O)O1 |
| 0.25 (≈ 0.479 µM) | 4 (≈ 7.67 µM) | 1 (≈ 1.92 µM) | 4 (≈ 7.67 µM) | 0.5 (≈ 0.959 µM) | CC(=O)NC[C@H]1CN(c2ccc(N3CCN(S(=O)(=O)c4cccc([N+](=O)[O-])c4)CC3)c(F)c2)C(=O)O1 |
| 1 (≈ 1.87 µM) | 32 (≈ 60 µM) | 32 (≈ 60 µM) | 32 (≈ 60 µM) | 4 (≈ 7.5 µM) | CC(=O)NC[C@H]1CN(c2ccc(N3CCN(S(=O)(=O)c4ccc(NC(C)=O)cc4)CC3)c(F)c2)C(=O)O1 |
| 8 (≈ 15.3 µM) | 128 (≈ 245 µM) | 128 (≈ 245 µM) | 128 (≈ 245 µM) | 32 (≈ 61.4 µM) | CC(=O)NC[C@H]1CN(c2ccc(N3CCN(S(=O)(=O)c4ccc([N+](=O)[O-])cc4)CC3)c(F)c2)C(=O)O1 |
| 0.25 (≈ 0.509 µM) | 16 (≈ 32.6 µM) | 16 (≈ 32.6 µM) | 16 (≈ 32.6 µM) | 0.25 (≈ 0.509 µM) | CC(=O)NC[C@H]1CN(c2ccc(N3CCN(S(=O)(=O)c4ccc(N)cc4)CC3)c(F)c2)C(=O)O1 |

| Compound | MIC [1] [µg/mL] | MIC [2] [µg/mL] | MIC [3] [µg/mL] | MIC [4] [µg/mL] | MIC [5] [µg/mL] |
| --- | --- | --- | --- | --- | --- |
| CC(=O)NC[C@H]1CN(c2ccc(N3CCOCC3)c(F)c2)C(=O)O1 [LINEZOLID] | 0.5 (≈ 1.48 µM) |  |  | 2 (≈ 5.93 µM) | 1 (≈ 2.96 µM) |

Source: ChEMBL document CHEMBL1136102, “Synthesis and antibacterial activity of oxazolidinone containing sulphonyl group” (2003)
